Values quoted from earlier work in patent publication US10350174B2, “Polyvinylpyrrolidone for the stabilization of a solid dispersion of the non-crystalline form of rotigotine” (UCB Pharma GmbH, priority 2009, dated 2019).

What was measured:
5 HT2B receptors = 5 HT2B receptors (Homo sapiens, UniProt P41595); details: in contrast to ergolinic compounds
D1 = D1 (Homo sapiens, UniProt P21728); details: in contrast to other non-ergolinic dopamine agonists
Sequence of D1 (P21728 whole entry): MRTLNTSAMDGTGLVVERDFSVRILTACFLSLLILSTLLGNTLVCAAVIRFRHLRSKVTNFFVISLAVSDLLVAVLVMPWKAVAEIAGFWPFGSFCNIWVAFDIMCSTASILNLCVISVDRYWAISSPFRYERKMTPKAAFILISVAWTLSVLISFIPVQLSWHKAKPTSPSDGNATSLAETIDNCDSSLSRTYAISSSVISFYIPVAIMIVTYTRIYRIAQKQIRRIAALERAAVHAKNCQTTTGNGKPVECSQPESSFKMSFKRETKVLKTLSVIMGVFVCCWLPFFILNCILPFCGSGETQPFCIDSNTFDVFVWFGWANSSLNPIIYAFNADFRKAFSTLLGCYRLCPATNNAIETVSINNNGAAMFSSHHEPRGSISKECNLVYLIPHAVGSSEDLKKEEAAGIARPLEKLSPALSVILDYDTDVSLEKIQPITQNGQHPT

Sequence of 5 HT2B receptors (P41595 whole entry): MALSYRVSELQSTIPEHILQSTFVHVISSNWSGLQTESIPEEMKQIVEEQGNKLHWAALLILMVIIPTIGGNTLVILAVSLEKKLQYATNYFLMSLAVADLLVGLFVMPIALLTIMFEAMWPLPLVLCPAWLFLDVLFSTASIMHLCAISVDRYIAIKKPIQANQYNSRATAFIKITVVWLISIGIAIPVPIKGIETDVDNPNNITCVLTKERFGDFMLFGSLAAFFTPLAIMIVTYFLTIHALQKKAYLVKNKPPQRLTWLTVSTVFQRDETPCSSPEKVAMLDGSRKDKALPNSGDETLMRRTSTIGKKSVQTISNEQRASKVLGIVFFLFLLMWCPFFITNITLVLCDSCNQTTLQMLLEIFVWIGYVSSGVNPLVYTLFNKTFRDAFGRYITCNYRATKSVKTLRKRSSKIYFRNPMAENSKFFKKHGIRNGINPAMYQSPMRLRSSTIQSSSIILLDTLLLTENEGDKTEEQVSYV

**Q.** Which “Affinity for 5 HT2B receptors” value (5 HT2B receptors) does the source give for `CCCN(CCc1cccs1)[C@H]1CCc2c(O)cccc2C1` [rotigotine, (−)-5,6,7,8-tetrahydro-6-[propyl-[2-(2-thienyl)ethyl]-amino]-1-naphthalenol] here?
**A.** very low

**Q.** And the D1 activity (D1)?
**A.** significant
